Reference: patent US7632811B2, “Analogs of parathyroid hormone” (Societe de Conseils de Recherches et D'Applications …, priority 1995, dated 2009)
Non-standard residues stand in square brackets, D forms with d. Residues, ends and D or L forms follow the SMILES beside them. Cha = N[C@@H](CC1CCCCC1)C(=O)O; Aib = CC(C)(N)C(=O)O

biological target: T1, PTH receptor present on SaOS-2 (human osteosarcoma cells) (Homo sapiens, UniProt Q03431); assay: Binding to PTH receptor on SaOS-2 cells (competition with mono-125I-[Nle8,18,Tyr34(3-125I)]bPTH(1-34)NH2); conditions: Table I, 2 hrs at room temperature, read-out: Kd (half maximal inhibition of binding of mono-125I-[Nle8,18, Tyr34(3-125I)]bPTH(1-34)NH2)
T1 construct: host or cells: SaOS-2 human osteosarcoma cells (intact, confluent monolayers)
T1 sequence (Q03431 27-593): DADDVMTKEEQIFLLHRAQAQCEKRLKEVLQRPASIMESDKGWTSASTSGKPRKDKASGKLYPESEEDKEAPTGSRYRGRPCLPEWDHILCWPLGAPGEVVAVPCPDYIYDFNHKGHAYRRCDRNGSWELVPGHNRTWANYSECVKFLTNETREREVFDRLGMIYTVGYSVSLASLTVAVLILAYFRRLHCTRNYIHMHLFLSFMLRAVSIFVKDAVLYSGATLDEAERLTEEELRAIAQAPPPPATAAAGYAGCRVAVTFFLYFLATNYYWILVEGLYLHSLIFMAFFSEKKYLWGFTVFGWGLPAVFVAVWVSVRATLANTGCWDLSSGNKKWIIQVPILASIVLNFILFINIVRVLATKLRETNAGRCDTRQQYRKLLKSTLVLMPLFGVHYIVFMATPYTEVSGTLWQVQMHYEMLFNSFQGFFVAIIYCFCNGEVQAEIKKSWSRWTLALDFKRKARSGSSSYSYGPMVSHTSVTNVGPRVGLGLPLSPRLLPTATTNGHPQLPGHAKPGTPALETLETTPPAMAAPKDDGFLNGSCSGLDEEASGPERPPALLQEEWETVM
Summary of the method: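 Confluent SaOS-2 cells in 5% FBS RPMI were incubated 2 h at room temperature with 10×10^4 cpm mono-125I-[Nle8,18,Tyr34(3-125I)]bPTH(1-34)NH2 plus competing peptide at 10^−11 to 10^−4 M. After washing, cell-bound radioactivity was counted; Kd taken as half-maximal inhibition of tracer binding.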

Kd [nM]	Structure (SMILES)
10	CC[C@H](C)[C@H](NC(=O)[C@H](CCC(=O)O)NC(=O)[C@H](CO)NC(=O)[C@@H](NC(=O)[C@@H](N)CO)C(C)C)C(=O)N[C@@H](CCC(N)=O)C(=O)N[C@@H](CC1CCCCC1)C(=O)N[C@@H](CCSC)C(=O)N[C@@H](Cc1c[nH]cn1)C(=O)N[C@@H](CC(N)=O)C(=O)N[C@@H](CC1CCCCC1)C(=O)NCC(=O)N[C@@H](CCCCN)C(=O)N[C@@H](Cc1c[nH]cn1)C(=O)N[C@@H](CC(C)C)C(=O)N[C@@H](CC(N)=O)C(=O)N[C@@H](CO)C(=O)N[C@@H](CCSC)C(=O)N[C@@H](CCC(=O)O)C(=O)N[C@@H](CCCNC(=N)N)C(=O)N[C@H](C(=O)N[C@@H](CCC(=O)O)C(=O)N[C@@H](Cc1c[nH]c2ccccc12)C(=O)N[C@@H](CC(C)C)C(=O)N[C@@H](CCCNC(=N)N)C(=O)N[C@@H](CCCCN)C(=O)N[C@@H](CCCCN)C(=O)N[C@@H](CC(C)C)C(=O)N[C@@H](CCC(N)=O)C(=O)N[C@@H](CC(=O)O)C(=O)N[C@H](C(=O)N[C@@H](Cc1c[nH]cn1)C(=O)N[C@@H](CC(N)=O)C(=O)N[C@@H](Cc1ccccc1)C(N)=O)C(C)C)C(C)C [[Cha^7,11]hPTH(1-34)NH2] (H-SVSEIQ[Cha]MHN[Cha]GKHLNSMERVEWLRKKLQDVHNF-NH2)
100	CC[C@H](C)[C@H](NC(=O)[C@H](CCC(=O)O)NC(=O)[C@H](CO)NC(=O)[C@@H](NC(=O)[C@@H](N)CO)C(C)C)C(=O)N[C@@H](CCC(N)=O)C(=O)N[C@@H](CC(C)C)C(=O)N[C@@H](CCSC)C(=O)N[C@@H](Cc1c[nH]cn1)C(=O)N[C@@H](CC(N)=O)C(=O)N[C@@H](CC(C)C)C(=O)NCC(=O)N[C@@H](CCCCN)C(=O)N[C@@H](Cc1c[nH]cn1)C(=O)N[C@@H](CC(C)C)C(=O)N[C@@H](CC(N)=O)C(=O)N[C@@H](CO)C(=O)N[C@@H](CCSC)C(=O)N[C@@H](CCC(=O)O)C(=O)N[C@@H](CCCNC(=N)N)C(=O)N[C@H](C(=O)N[C@@H](CCC(=O)O)C(=O)N[C@@H](Cc1c[nH]c2ccccc12)C(=O)N[C@@H](CC1CCCCC1)C(=O)N[C@@H](CCCNC(=N)N)C(=O)N[C@@H](CCCCN)C(=O)N[C@@H](CCCCN)C(=O)N[C@@H](CC(C)C)C(=O)N[C@@H](CCC(N)=O)C(=O)N[C@@H](CC(=O)O)C(=O)N[C@H](C(=O)N[C@@H](Cc1c[nH]cn1)C(=O)N[C@@H](CC(N)=O)C(=O)N[C@@H](Cc1ccccc1)C(N)=O)C(C)C)C(C)C [[Cha^24]hPTH(1-34)NH2] (H-SVSEIQLMHNLGKHLNSMERVEW[Cha]RKKLQDVHNF-NH2)
4	CC[C@H](C)[C@H](NC(=O)[C@H](CCC(=O)O)NC(=O)[C@H](CO)NC(=O)[C@@H](NC(=O)[C@@H](N)CO)C(C)C)C(=O)N[C@@H](CCC(N)=O)C(=O)N[C@@H](CC(C)C)C(=O)N[C@@H](CCSC)C(=O)N[C@@H](Cc1c[nH]cn1)C(=O)N[C@@H](CC(N)=O)C(=O)N[C@@H](CC(C)C)C(=O)NCC(=O)N[C@@H](CCCCN)C(=O)N[C@@H](Cc1c[nH]cn1)C(=O)N[C@@H](CC(C)C)C(=O)NC(C)(C)C(=O)N[C@@H](CO)C(=O)N[C@@H](CCSC)C(=O)NC(C)(C)C(=O)N[C@@H](CCCNC(=N)N)C(=O)N[C@H](C(=O)N[C@@H](CCC(=O)O)C(=O)N[C@@H](Cc1c[nH]c2ccccc12)C(=O)N[C@@H](CC(C)C)C(=O)N[C@@H](CCCNC(=N)N)C(=O)N[C@@H](CCCCN)C(=O)N[C@@H](CCCCN)C(=O)N[C@@H](CC(C)C)C(=O)N[C@@H](CCC(N)=O)C(=O)N[C@@H](CC(=O)O)C(=O)N[C@H](C(=O)N[C@@H](Cc1c[nH]cn1)C(=O)N[C@@H](CC(N)=O)C(=O)N[C@@H](Cc1ccccc1)C(N)=O)C(C)C)C(C)C [[Aib^16,19]hPTH(1-34)NH2] (H-SVSEIQLMHNLGKHL[Aib]SM[Aib]RVEWLRKKLQDVHNF-NH2)
